Source: patent US11458139B2, “Use of BRAF inhibitors for treating cutaneous reactions caused by treatment with a MEK inhibitor” (MEMORIAL SLOAN KETTERING CANCER CENTER, priority 2017, dated 2022)

System: MAPK (ERK)
Experiment: ERK phosphorylation (Phospho-ERK/total ERK) in normal human keratinocytes HEKa, Western blot
Format: cell-based
Conditions: 2 hours treatment; for effect on ERK activation: concentration not given (0.3 μM and 1 μM tested); for ERK activation (increase in the relative amount of Phosphorylated ERK): 0.3 μM (FIGS. 1A and 1C)
Procedure: Normal human keratinocytes HEKa (purchased from Gibco Rhenium) were seeded in 10 cm dishes (300,000 cells/dish) and incubated overnight at 37° C., 5% CO2. The medium was then replaced with a starvation medium for 2 hours and the cells were subsequently treated for 2 additional hours with the test compounds (i.e BRAF inhibitors). […]
Post incubation, the cells were lysed with RIPA buffer and the protein extracts were analyzed by Western blot to detect Phospho-ERK and total ERK using suitable antibodies. Untreated cells and 0.1% DMSO treated cells were used as negative control and Human Keratinocyte Growth Supplement (HKGS) (Gibco) was used as a positive control.
Western Blot: 7.5 μg of total extract was loaded on 10% or 12% acrylamide gel. Following transfer, the membranes were blocked with TBST/5% skimmed milk and then incubated with Mouse anti Phospho-ERK (1:1000 in TBST 5% BSA, ON at 4° C.) and goat anti Mouse HRP (1:10,000 in TBST 5% BSA, 1-hour RT). The membranes were exposed using SuperSignal West Pico Chemiluminescent Substrate.
HRP was subsequently inactivated by incubating the membranes for 1 hour with 0.5% sodium azide. Following washes and ECL exposure in order to ensure absence of signal, the membranes were re-blocked for 15 min with TBST/5% skimmed milk and then incubated with Rabbit anti total ERK2 (1:500 in TBST 5% BSA, ON at 4° C.), goat anti Rabbit HRP (1:5,000 in TBST 5% BSA, 1-hour RT) and finally exposed using the SuperSignal West Pico Chemiluminescent Substrate. The films were scanned and the signal was quantified using ImageJ software. The results were calculated as Phospho-ERK/total ERK.
In this experiment, the effect of the BRAF inhibitor compounds disclosed herein on MAPK (ERK) phosphorylation in human keratinocytes (HEKa) was investigated. Phosphorylation of ERK served as an indicator for ERK activation.
In order to determine the effect of various BRAF inhibitors on ERK activation in relevant keratinocytes cells, the level of ERK phosphorylation was measured in normal human keratinocytes in response to treatment with the BRAF inhibitors.

CNc1ncc2cc(-c3c(C)ccc4c(Nc5ccc(F)c(Cl)c5)nccc34)ccc2n1 [LUT195]
effect on ERK activation: moderate effect on ERK activation

C#Cc1cccc(Nc2nccc3c(-c4ccc5nc(NC)ncc5c4)c(C)ccc23)c1 [LUT192]
effect on ERK activation: moderate effect on ERK activation

CNc1cc(-c2cccnc2Nc2c(C)ccc3c(Nc4ccc(I)cc4F)nccc23)ncn1 [LUT156]
ERK activation (increase in the relative amount of Phosphorylated ERK): significant ERK activation

CNc1ncc2cc(-c3c(C)ccc4c(Nc5ccc(Cl)c(C(F)(F)F)c5)nccc34)ccc2n1 [LUT197]
ERK activation (increase in the relative amount of Phosphorylated ERK): significant ERK activation

CNc1ncc2ccc(-c3c(C)ccc4c(Nc5cc(O)cc(O)c5)nccc34)cc2n1 [LUT001]
effect on ERK activation: moderate effect on ERK activation
